Data reported in patent publication US7319098B2, “1,3-dioxoisoindole derivatives having selective antagonism of T-type calcium channel” (Korea Institute of Science and Technology, priority 2006, dated 2008).

molecular target: T1, α1G T-type Ca2+ channels (Homo sapiens, UniProt O43497); assay: Screening of activity against T-type calcium channel with FDSS6000 (fluorescence, KCl-induced [Ca2+]i increase); assay type: cell-based; conditions: 10 μM; HEK293 cells expressing α1G and Kir2.1; NA: Not Active; read-out: Inhibitory effect (%) of T-type calcium channel, Inhibition (%)
T1 construct: expressed in transfected cells; host or cells: HEK293 cells stably expressing α1G and Kir2.1
T1 sequence (O43497 whole entry): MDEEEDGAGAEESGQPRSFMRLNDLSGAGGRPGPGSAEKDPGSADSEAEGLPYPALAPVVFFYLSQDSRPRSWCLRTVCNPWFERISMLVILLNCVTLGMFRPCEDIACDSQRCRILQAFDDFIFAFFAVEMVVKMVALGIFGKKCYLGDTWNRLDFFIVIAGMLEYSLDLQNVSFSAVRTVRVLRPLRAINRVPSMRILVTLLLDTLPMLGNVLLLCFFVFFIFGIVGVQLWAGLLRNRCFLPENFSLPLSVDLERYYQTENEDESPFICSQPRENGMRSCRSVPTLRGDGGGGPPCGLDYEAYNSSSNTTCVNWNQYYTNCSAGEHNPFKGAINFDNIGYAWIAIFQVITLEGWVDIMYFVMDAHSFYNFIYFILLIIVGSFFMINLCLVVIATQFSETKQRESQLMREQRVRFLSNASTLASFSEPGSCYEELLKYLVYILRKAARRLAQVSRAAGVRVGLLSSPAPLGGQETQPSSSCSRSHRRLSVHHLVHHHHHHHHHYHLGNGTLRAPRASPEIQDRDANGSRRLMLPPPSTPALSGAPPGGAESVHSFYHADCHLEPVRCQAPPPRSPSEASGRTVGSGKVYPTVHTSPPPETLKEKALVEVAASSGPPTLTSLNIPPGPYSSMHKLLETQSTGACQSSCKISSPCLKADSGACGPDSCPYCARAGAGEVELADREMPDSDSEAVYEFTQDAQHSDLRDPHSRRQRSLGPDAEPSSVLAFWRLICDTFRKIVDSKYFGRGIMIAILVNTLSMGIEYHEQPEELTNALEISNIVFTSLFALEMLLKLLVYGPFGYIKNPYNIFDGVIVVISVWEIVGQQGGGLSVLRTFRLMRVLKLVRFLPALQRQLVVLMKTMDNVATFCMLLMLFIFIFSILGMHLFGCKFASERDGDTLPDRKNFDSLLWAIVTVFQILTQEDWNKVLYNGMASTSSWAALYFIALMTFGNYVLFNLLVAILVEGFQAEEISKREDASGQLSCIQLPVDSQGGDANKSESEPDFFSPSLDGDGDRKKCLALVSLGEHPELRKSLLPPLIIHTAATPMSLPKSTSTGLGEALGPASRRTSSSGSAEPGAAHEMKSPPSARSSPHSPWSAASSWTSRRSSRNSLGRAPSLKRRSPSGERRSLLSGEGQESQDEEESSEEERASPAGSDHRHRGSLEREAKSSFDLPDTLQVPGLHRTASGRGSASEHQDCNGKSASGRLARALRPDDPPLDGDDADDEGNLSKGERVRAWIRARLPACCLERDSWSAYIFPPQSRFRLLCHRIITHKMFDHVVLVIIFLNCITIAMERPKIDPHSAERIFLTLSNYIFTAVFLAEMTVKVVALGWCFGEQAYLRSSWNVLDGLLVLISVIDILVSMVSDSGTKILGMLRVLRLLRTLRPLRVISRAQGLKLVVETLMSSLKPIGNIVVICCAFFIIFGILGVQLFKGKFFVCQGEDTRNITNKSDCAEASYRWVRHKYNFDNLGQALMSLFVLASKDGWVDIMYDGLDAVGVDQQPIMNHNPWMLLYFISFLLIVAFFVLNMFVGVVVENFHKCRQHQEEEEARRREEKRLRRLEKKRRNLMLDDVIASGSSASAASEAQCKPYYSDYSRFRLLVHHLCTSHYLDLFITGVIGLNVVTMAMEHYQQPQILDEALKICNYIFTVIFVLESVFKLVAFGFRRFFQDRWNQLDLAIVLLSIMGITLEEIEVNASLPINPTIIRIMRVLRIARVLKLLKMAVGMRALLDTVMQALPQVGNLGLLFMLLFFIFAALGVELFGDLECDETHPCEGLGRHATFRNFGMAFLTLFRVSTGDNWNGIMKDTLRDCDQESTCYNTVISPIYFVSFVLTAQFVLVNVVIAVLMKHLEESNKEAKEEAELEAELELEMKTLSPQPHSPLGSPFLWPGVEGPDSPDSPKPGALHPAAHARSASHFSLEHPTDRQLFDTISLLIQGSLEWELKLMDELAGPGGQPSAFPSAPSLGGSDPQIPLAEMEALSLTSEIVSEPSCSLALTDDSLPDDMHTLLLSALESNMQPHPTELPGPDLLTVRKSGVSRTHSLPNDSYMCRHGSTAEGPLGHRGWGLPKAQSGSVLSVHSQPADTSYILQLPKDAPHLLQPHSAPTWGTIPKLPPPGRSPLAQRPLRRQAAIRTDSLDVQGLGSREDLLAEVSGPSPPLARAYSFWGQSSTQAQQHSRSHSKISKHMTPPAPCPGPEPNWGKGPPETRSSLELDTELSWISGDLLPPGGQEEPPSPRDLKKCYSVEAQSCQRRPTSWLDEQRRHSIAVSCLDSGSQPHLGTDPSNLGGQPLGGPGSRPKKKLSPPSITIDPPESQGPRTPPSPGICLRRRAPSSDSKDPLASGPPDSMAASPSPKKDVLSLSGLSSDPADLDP
Procedure, shortened: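 HEK293 cells stably expressing α1G plus Kir2.1 were loaded with 5 μM fluo3/AM for 60 min at room temperature in HEPES buffer pH 7.4. In buffer with 10 mM CaCl2, cells were pretreated with compound, then depolarized with 70 mM KCl. The rise in [Ca2+]i was measured by fluorescence […].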

Compound | inhibition at 10 µM [%]
CC1CCCCN1CCCNC(=O)c1ccc2c(c1)C(=O)N(Cc1ccccc1Cl)C2=O (stereo not shown) [Compound 76, 1-(3-{[2-(2-chloro-benzyl)-1,3-dioxo-2,3-dihydro-1H-isoindol-5-carbonyl]-amino}-propyl)-2-methyl-piperidinium chloride] | 50.9
CC1CCCCN1CCCNC(=O)c1ccc2c(c1)C(=O)N(Cc1cccc(Cl)c1)C2=O (stereo not shown) [Compound 82, 1-(3-{[2-(3-chloro-benzyl)-1,3-dioxo-2,3-dihydro-1H-isoindol-5-carbonyl]-amino}-propyl)-2-methyl-piperidinium chloride] | 46.2
O=C(NCCN1CCCCC1)c1ccc2c(c1)C(=O)N(Cc1ccc(Cl)cc1)C2=O [Compound 87, 1-(2-{[2-(4-chloro-benzyl)-1,3-dioxo-2,3-dihydro-1H-isoindol-5-carbonyl]-amino}-ethyl)-piperidinium chloride] | 47.2
Cc1ccc(CN2C(=O)c3ccc(C(=O)NCCN4CCCC4)cc3C2=O)cc1 [Compound 107, 1-(2-{[2-(4-methyl-benzyl)-1,3-dioxo-2,3-dihydro-1H-isoindol-5-carbonyl]-amino}-ethyl)-pyrrolidinium chloride] | 20.7
Cc1ccc(CN2C(=O)c3ccc(C(=O)NCCCN4CCCC4)cc3C2=O)cc1 [Compound 108, 1-(3-{[2-(4-methyl-benzyl)-1,3-dioxo-2,3-dihydro-1H isoindol-5-carbonyl]-amino}-propyl)-pyrrolidinium chloride] | 15.6
Cc1ccc(CN2C(=O)c3ccc(C(=O)NCCN4CCOCC4)cc3C2=O)cc1 [Compound 109, 4-(2-{[2-(4-methyl-benzyl)-1,3-dioxo-2,3-dihydro-1H-isoindol-5-carbonyl]-amino}-ethyl)-4-morpholinium chloride] | 12.2
Cc1ccc(CN2C(=O)c3ccc(C(=O)NCCCN4CCOCC4)cc3C2=O)cc1 [Compound 110, 4-(3-{[2-(4-methyl-benzyl)-1,3-dioxo-2,3-dihydro-1H-isoindol-5-carbonyl]-amino}-propyl)-4-morpholinium chloride] | 9.1

Next, values leading:

inhibition at 10 µM [%] | Compound
9.1 | CC1CCCCN1CCCNC(=O)c1ccc2c(c1)C(=O)N(Cc1ccc(C#N)cc1)C2=O (stereo not shown) [Compound 130, 1-(3-{[2-(4-cyano-benzyl)-1,3-dioxo-2,3-dihydro-1H-isoindol-5-carbonyl]-amino}-propyl)-2-methyl-piperidinium chloride]
0.6 | N#Cc1ccc(CN2C(=O)c3ccc(C(=O)NCCN4CCCC4)cc3C2=O)cc1 [Compound 131, 1-(2-{[2-(4-cyano-benzyl)-1,3-dioxo-2,3-dihydro-1H-isoindol-5-carbonyl]-amino}-ethyl)-pyrrolidinium chloride]

same assay, conditions: 100 μM; HEK293 cells expressing α1G and Kir2.1; read-out: Inhibitory effect (%) of T-type calcium channel, Inhibition (%)

Compound | inhibition at 100 µM [%]
O=C(NCCN1CCCCC1)c1ccc2c(c1)C(=O)N(Cc1cccc(F)c1)C2=O [Compound 61, 1-(2-{[2-(3-fluoro-benzyl)-1,3-dioxo-2,3-dihydro-1H-isoindol-5-carbonyl]-amino}-ethyl)-piperidinium chloride] | 85.5
CC1CCCCN1CCCNC(=O)c1ccc2c(c1)C(=O)N(Cc1ccc(F)cc1)C2=O (stereo not shown) [Compound 69, 1-(3-{[2-(4-fluoro-benzyl)-1,3-dioxo-2,3-dihydro-1H-isoindol-5-carbonyl]-amino}-propyl)-2-methyl-piperidinium chloride] | 84.7
COc1ccccc1CN1C(=O)c2ccc(C(=O)NCCN3CCCCC3)cc2C1=O [Compound 111, 1-(2-{[2-(2-methoxy-benzyl)-1,3-dioxo-2,3-dihydro-1H-isoindol-5-carbonyl]-amino}-ethyl)-piperidinium chloride] | 69.5
COc1ccccc1CN1C(=O)c2ccc(C(=O)NCCCN3CCCCC3C)cc2C1=O (stereo not shown) [Compound 112, 1-(3-{[2-(2-methoxy-benzyl)-1,3-dioxo-2,3-dihydro-1H-isoindol-5-carbonyl]-amino}-propyl)-2-methyl-piperidinium chloride] | 75.1
COc1ccccc1CN1C(=O)c2ccc(C(=O)NCCN3CCCC3)cc2C1=O [Compound 113, 1-(2-{[2-(2-methoxy-benzyl)-1,3-dioxo-2,3-dihydro-1H-isoindol-5-carbonyl]-amino}-ethyl)-pyrrolidinium chloride] | 55.1

Now from value to compound:

inhibition at 100 µM [%] | Compound
53 | COc1ccccc1CN1C(=O)c2ccc(C(=O)NCCCN3CCCC3)cc2C1=O [Compound 114, 1-(3-{[2-(2-methoxy-benzyl)-1,3-dioxo-2,3-dihydro-1H-isoindol-5-carbonyl]-amino}-propyl)-pyrrolidinium chloride]
51.1 | COc1ccccc1CN1C(=O)c2ccc(C(=O)NCCN3CCOCC3)cc2C1=O [Compound 115, 4-(2-{[2-(2-methoxy-benzyl)-1,3-dioxo-2,3-dihydro-1H-isoindol-5-carbonyl]-amino}-ethyl)-4-morpholinium chloride]
48.8 | COc1ccccc1CN1C(=O)c2ccc(C(=O)NCCCN3CCOCC3)cc2C1=O [Compound 116, 4-(3-{[2-(2-methoxy-benzyl)-1,3-dioxo-2,3-dihydro-1H-isoindol-5-carbonyl]-amino}-propyl)-4-morpholinium chloride]
69.8 | COc1cccc(CN2C(=O)c3ccc(C(=O)NCCN4CCCCC4)cc3C2=O)c1 [Compound 117, 1-(2-{[2-(3-methoxy-benzyl)-1,3-dioxo-2,3-dihydro-1H-isoindol-5-carbonyl]-amino}-ethyl)-piperidinium chloride]
71.1 | COc1cccc(CN2C(=O)c3ccc(C(=O)NCCCN4CCCCC4C)cc3C2=O)c1 (stereo not shown) [Compound 118, 1-(3-{[2-(3-methoxy-benzyl)-1,3-dioxo-2,3-dihydro-1H-isoindol-5-carbonyl]-amino}-propyl)-2-methyl-piperidinium chloride]
56.3 | COc1cccc(CN2C(=O)c3ccc(C(=O)NCCN4CCCC4)cc3C2=O)c1 [Compound 119, 1-(2-{[2-(3-methoxy-benzyl)-1,3-dioxo-2,3-dihydro-1H-isoindol-5-carbonyl]-amino}-ethyl)-pyrrolidinium chloride]
63.7 | COc1cccc(CN2C(=O)c3ccc(C(=O)NCCCN4CCCC4)cc3C2=O)c1 [Compound 120, 1-(3-{[2-(3-methoxy-benzyl)-1,3-dioxo-2,3-dihydro-1H-isoindol-5-carbonyl]-amino}-propyl)-pyrrolidinium chloride]
57.6 | COc1cccc(CN2C(=O)c3ccc(C(=O)NCCN4CCOCC4)cc3C2=O)c1 [Compound 121, 4-(2-{[2-(3-methoxy-benzyl)-1,3-dioxo-2,3-dihydro-1H-isoindol-5-carbonyl]-amino}-ethyl)-4-morpholinium chloride]
56.6 | COc1cccc(CN2C(=O)c3ccc(C(=O)NCCCN4CCOCC4)cc3C2=O)c1 [Compound 122, 4-(3-{[2-(3-methoxy-benzyl)-1,3-dioxo-2,3-dihydro-1H-isoindol-5-carbonyl]-amino}-propyl)-4-morpholinium chloride]
64.3 | COc1ccc(CN2C(=O)c3ccc(C(=O)NCCN4CCCCC4)cc3C2=O)cc1 [Compound 123, 1-(2-{[2-(4-methoxy-benzyl)-1,3-dioxo-2,3-dihydro-1H isoindol-5-carbonyl]-amino}-ethyl)-piperidinium chloride]
77.7 | COc1ccc(CN2C(=O)c3ccc(C(=O)NCCCN4CCCCC4C)cc3C2=O)cc1 (stereo not shown) [Compound 124, 1-(3-{[2-(4-methoxy-benzyl)-1,3-dioxo-2,3-dihydro-1H-isoindol-5-carbonyl]-amino}-propyl)-2-methyl-piperidinium chloride]
65.2 | COc1ccc(CN2C(=O)c3ccc(C(=O)NCCN4CCCC4)cc3C2=O)cc1 [Compound 125, 1-(2-{[2-(4-methoxy-benzyl)-1,3-dioxo-2,3-dihydro-1H-isoindol-5-carbonyl]-amino}-ethyl)-pyrrolidinium chloride]
73.8 | COc1ccc(CN2C(=O)c3ccc(C(=O)NCCCN4CCCC4)cc3C2=O)cc1 [Compound 126, 1-(3-{[2-(4-methoxy-benzyl)-1,3-dioxo-2,3-dihydro-1H-isoindol-5-carbonyl]-amino}-propyl)-pyrrolidinium chloride]
51.7 | COc1ccc(CN2C(=O)c3ccc(C(=O)NCCN4CCOCC4)cc3C2=O)cc1 [Compound 127, 4-(2-{[2-(4-methoxy-benzyl)-1,3-dioxo-2,3-dihydro-1H-isoindol-5-carbonyl]-amino}-ethyl)-4-morpholinium chloride]
52.9 | COc1ccc(CN2C(=O)c3ccc(C(=O)NCCCN4CCOCC4)cc3C2=O)cc1 [Compound 128, 4-(3-{[2-(4-methoxy-benzyl)-1,3-dioxo-2,3-dihydro-1H-isoindol-5-carbonyl]-amino}-propyl)-4-morpholinium chloride]

molecular target: T2, α1G T-type Ca2+ currents (Homo sapiens, UniProt O43497); assay: Electrophysiological whole cell patch clamp method in HEK293 cell; assay type: cell-based; conditions: peak current, step to −30 mV, read-out: Activity (IC50) against T-type calcium channel
T2 construct: expressed in transfected cells; host or cells: HEK293
T2 sequence (O43497 whole entry): as above
Experimental: Meanwhile, the antagonistic activity of the novel compound of Formula (1) herein against T-type calcium channel was tested as described below. The synthesized compounds were tested for the activity against T-type calcium channel with FDSS6000. […] For the recordings of α1G T-type Ca^2+ currents, the standard whole-cell patch-clamp method was utilized as previously described. Briefly, borosilicate glass electrodes with a resistance of 3˜4 MΩ were pulled and filled with the internal solution contained (in mM): 130 KCl, 11 EGTA, 5 Mg-ATP, and 10 HEPES (pH 7.4). […] The molar concentrations of test compounds required to produce 50% inhibition of peak currents (IC50) were determined from fitting raw data into dose-response curves. The current recordings were obtained using an EPC-9 amplifier and Pulse/Pulsefit software program (HEKA, Germany).

IC50 [nM] | Compound
8520 ± 750 | O=C(NCCN1CCCCC1)c1ccc2c(c1)C(=O)N(Cc1cccc(F)c1)C2=O [Compound 61, 1-(2-{[2-(3-fluoro-benzyl)-1,3-dioxo-2,3-dihydro-1H-isoindol-5-carbonyl]-amino}-ethyl)-piperidinium chloride]
2030 ± 120 | CC1CCCCN1CCCNC(=O)c1ccc2c(c1)C(=O)N(Cc1ccc(F)cc1)C2=O (stereo not shown) [Compound 69, 1-(3-{[2-(4-fluoro-benzyl)-1,3-dioxo-2,3-dihydro-1H-isoindol-5-carbonyl]-amino}-propyl)-2-methyl-piperidinium chloride]
1520 ± 190 | CC1CCCCN1CCCNC(=O)c1ccc2c(c1)C(=O)N(Cc1ccccc1Cl)C2=O (stereo not shown) [Compound 76, 1-(3-{[2-(2-chloro-benzyl)-1,3-dioxo-2,3-dihydro-1H-isoindol-5-carbonyl]-amino}-propyl)-2-methyl-piperidinium chloride]
1810 ± 460 | CC1CCCCN1CCCNC(=O)c1ccc2c(c1)C(=O)N(Cc1cccc(Cl)c1)C2=O (stereo not shown) [Compound 82, 1-(3-{[2-(3-chloro-benzyl)-1,3-dioxo-2,3-dihydro-1H-isoindol-5-carbonyl]-amino}-propyl)-2-methyl-piperidinium chloride]
960 ± 70 | O=C(NCCN1CCCCC1)c1ccc2c(c1)C(=O)N(Cc1ccc(Cl)cc1)C2=O [Compound 87, 1-(2-{[2-(4-chloro-benzyl)-1,3-dioxo-2,3-dihydro-1H-isoindol-5-carbonyl]-amino}-ethyl)-piperidinium chloride]
